According to US20250041307A1, “Uses of Bicyclic Compounds for the Treatment of Diseases” (Athira Pharma, Inc., priority 2021, published 2025):

Legend:
Type in all cases: cell-based
[1] = test system: MDCK cells; assay: Cell scattering behavior assay; design: key: − indicates that the compound failed to significantly promote cell scattering behavior; + indicates maximum potency at or above 100 nM; ++ indicates maximum potency at or above 10 nM; +++ indicates maximum potency at or above 1 nM; ++++ indicates maximum potency at or above 0.1 nM; settings: with 5 ng/mL HGF, 24 hours, normalized particle count compared to HGF treatment alone
Procedure: MDCK cells were grown under normal conditions and observed to spontaneously form tight colonies as they proliferate. MDCK cells respond to HGF treatment by moving away from each other (scattering), which is quantified to assess the amount of HGF/MET activation in the cell population. In this experiment, MDCK cells were plated in a 96-well format, treated with HGF and exemplary compounds, fluorescently stained, imaged in large fields, and scattering behavior was quantified. Quantification was determined by analyzing the number of continuous groups of cells compared to the total stained area imaged (normalized particle counts).
MDCK cells were plated at low density in black-walled imaging plates and allowed to attach overnight at 37° C. and 5% CO2 in DMEM+10% FBS. Cells were then starved to 2 hours in DMEM without FBS (“starve media”). Samples containing exemplary compounds were prepared in DMEM without FBS and included 5 ng/mL HGF protein (“treatment media”). A control curve was also prepared for each plate using HGF concentrations of 0, 5, 10, and 20 ng/mL. Starve media was replaced with treatment media and cells were incubated for 24 hours at 37° C. and 5% CO2.
After incubation, cells were fixed by replacing treatment media with cold ethanol and incubating for 20 minutes at 4° C. Cells were then rehydrated by washing with PBS and then with stain solution (fluorescent wheat germ agglutinin; WGA488 at 20 μg/mL in PBS). Cells were incubated with stain solution 30 minutes at room temperature after which stain solution was replaced with fresh PBS.
Fields of cells were imaged using an iCyte high content imager in the green wavelength. Images were converted to binary and analyzed for particle size and particle count. For the purpose of analysis, an individual cell touching no other cells or separated colonies of cells were identified as particles, and particle counts were normalized by the total signal area to account for differences in cell number. […] Compound potency was assessed by statistical increase in normalized particle count compared to HGF treatment alone.

[2] = test system: HGF/MET system; assay: Phospho-MET ELISA; design: key: − indicates that the compound failed to significantly augment MET phosphorylation; + indicates maximum potency at or above 100 nM; ++ indicates maximum potency at or above 10 nM; +++ indicates maximum potency at or above 1 nM; ++++ indicates maximum potency at or above 0.1 nM; settings: HEK293 cells; with 1 ng/mL recombinant HGF; 15 minutes; augmentation of MET phosphorylation (pMET ELISA)
Procedure: Compounds were screened for potency towards the HGF/MET system using phospho-MET (pMET) ELISA kits (Cell Signaling). pMET levels were detected in samples having low (1 ng/mL) and high (10 ng/mL) concentrations of HGF.
HEK293 cells were prepared by passage into 6-well multi-plates and grown at 37° C. at 5% CO2 in DMEM+10% FBS until approximately 90% confluent. Cells were then starved for at least 8 hours in serum-free growth media.
Exemplary compounds were prepared in DMEM+0.1% FBS, diluted and added to treatment media with 1 ng/mL recombinant HGF protein (R&D Systems). Cells were incubated in triplicate at 37° C. and 5% CO2 for 15 minutes. Samples were then treated with 180 μL ice-cold RIPA (radioimmunoprecipitation assay) buffer and cells were lysed on ice for 15 minutes. Lysates were cleared by centrifugation at 16,000-g for 15 minutes and the supernatant was retained. Samples were normalized using a BCA assay of lysates to determine protein concentrations across the samples.
Between 50 and 100 μg total protein lysate was loaded into ELISA wells in pMET Sandwich ELISA kit (Cell Signaling Catalog #7227C), ensuring equal protein load in each well. The ELISA was processed according to manufacturer's instructions. After color developed, absorbance was read on an optical plate reader at 450 nm.
Potency measurements were determined using peak efficacy by scaling test compound dose treatments along a scale of 1-10 between 1 ng/mL and 10 ng/mL HGF doses according to the following formula: […]
where y is the normalized data-point, x is the raw data point, A is the mean HGF at 1 ng/mL, and B is the mean HGF at 10 ng/mL.

[3] = test system: Rat primary cortical neuron cultures; assay: Protection from neurotoxicity in vitro (Cell Titer-Glo viability); settings: 24 hours, with HGF 5 ng/ml
Procedure: HGF/MET signaling activation is expected to protect cells, including neurons, from cell death. […] Hydrogen peroxide (H2O2) treatment produces toxic oxidative stress. Bacteria-derived lipopolysaccharide (LPS) treatment induces inflammatory cell death. Treatment with excess glutamate (Glut) produces excitotoxicity in neuron cultures. Treatment with 1-methyl-4-phenylpyridinium (MPP^+) causes cell death by inhibition of mitochondrial function.
Rat primary cortical neuron cultures were grown at 37° C., 5% CO2 in Complete Neurobasal Medium supplemented with B27/GDNF/BDNF containing 10% FBS until maturity and were then seeded in 384-well plate at 5,000 cells/well. Cultures were then treated for 15 minutes with 1 uM, 100 nM, 10 nM, 1 nM, or 0.1 nM of compound 1a. Cells were then subjected to individual conditional insults for 24 hours at the following concentrations: H2O2 at 1 uM, LPS at 1 uM, glutamate at 25 uM, MPP+ at 500 uM. All treatments contained recombinant human HGF (R&D Systems) at a concentration of 5 ng/ml.
To quantify neuroprotection, cell viability was measured with the Cell Titer-Glo Luminescent Cell Viability Assay (Promega, Cat #G7571). Data was normalized to DMSO+HGF control set at 100% cell viability. Statistical analyses for each group (n=4) were performed using one-way ANOVA with Tukey's Multiple comparison test.
Data is reported as statistical significance vs. insult control, with NS=not significant, +=p<0.05, ++=p<0.01, and +++=p<0.001.

For `CCC(C)CN1CC2N(C(=O)c3ccc(Cl)cc3)CCC(=O)N2C(C)C1=O` (stereo not shown) [Compound 10, 1-(4-chlorobenzoyl)-6-methyl-8-(2-methylbutyl)hexahydro-4H-pyrazino[1,2-a]pyrimidine-4,7(6H)-dione], the Potency [1] was “−” and the Potency [2] was “−”.
With `CC1C(=O)N(CC2CCCC2)CC2N(C(=O)c3ccc(OC(F)F)cc3)CCC(=O)N12` (stereo not shown) [Compound 13] the Potency [1] was “−” and the Potency [2] was “−”.
In the case of `CC1C(=O)N(CC2CCCC2)CC2N(C(=O)c3ccc(C(F)(F)F)cc3)CCC(=O)N12` (stereo not shown) [Compound 15], the Potency [1] is reported as “−” and the Potency [2] is reported as “−”.
In the case of `CC1C(=O)N(CC2CCC2)CC2N(C(=O)c3ccc(C(F)(F)F)cc3)CCC(=O)N12` (stereo not shown) [Compound 16], the Potency [1] is reported as “−” and the Potency [2] is reported as “−”.
For `C=CCCN1CC2N(C(=O)c3ccc(OC(F)F)cc3)CCC(=O)N2C(C)C1=O` (stereo not shown) [Compound 18], the Potency [1] was “−” and the Potency [2] was “−”.
In the case of `CCCCN1CC2N(C(=O)c3ccc(C(F)(F)F)cc3)CCC(=O)N2C(C)C1=O` (stereo not shown) [Compound 21], the Potency [1] is reported as “−” and the Potency [2] is reported as “−”.
With `CC(C)CN1CC2N(C(=O)c3ccc(C(F)(F)F)cc3)CCC(=O)N2C(C)C1=O` (stereo not shown) [Compound 23] the Potency [1] was “−” and the Potency [2] was “−”.
For `CC(C)N1CC2N(C(=O)c3ccc(C(F)(F)F)cc3)CCC(=O)N2C(C)C1=O` (stereo not shown) [Compound 24], the Potency [1] was “−” and the Potency [2] was “−”.
`CC1C(=O)N(CCc2ccco2)CC2N(C(=O)c3ccc(OC(F)F)cc3)CCC(=O)N12` (stereo not shown) [Compound 25] was tested, and the Potency [1] was “−” and the Potency [2] was “−”.
With `CC1C(=O)N(CCc2cccs2)CC2N(C(=O)c3ccc(OC(F)F)cc3)CCC(=O)N12` (stereo not shown) [Compound 26] the Potency [1] was “−” and the Potency [2] was “−”.
`CC1C(=O)N(CC2CCCO2)CC2N(C(=O)c3ccc(OC(F)F)cc3)CCC(=O)N12` (stereo not shown) [Compound 27] was tested, and the Potency [2] was “−”.
With `CC1C(=O)N(CCc2ccccc2)CC2N(C(=O)c3ccc(OC(F)F)cc3)CCC(=O)N12` (stereo not shown) [Compound 28] the Potency [1] was “−” and the Potency [2] was “−”.
In the case of `CC1C(=O)N(CCc2ccncc2)CC2N(C(=O)c3ccc(OC(F)F)cc3)CCC(=O)N12` (stereo not shown) [Compound 29], the Potency [2] is reported as “−”.
For `CC1C(=O)N(CCC2CC2)CC2N(C(=O)c3ccc(OC(F)F)cc3)CCC(=O)N12` (stereo not shown) [Compound 31], the Potency [1] was “−” and the Potency [2] was “−”.
`COCCN1CC2N(C(=O)c3ccc(OC(F)F)cc3)CCC(=O)N2C(C)C1=O` (stereo not shown) [Compound 32] was tested, and the Potency [1] was “−” and the Potency [2] was “−”.
With `COCCCN1CC2N(C(=O)c3ccc(OC(F)F)cc3)CCC(=O)N2C(C)C1=O` (stereo not shown) [Compound 33] the Potency [1] was “−” and the Potency [2] was “−”.
`CC1C(=O)N(CCO)CC2N(C(=O)c3ccc(OC(F)F)cc3)CCC(=O)N12` (stereo not shown) [Compound 34, 1-(4-(difluoromethoxy)benzoyl)-8-(2-hydroxyethyl)-6-methylhexahydro-4H-pyrazino[1,2-a]pyrimidine-4,7(6H)-dione] was tested, and the Potency [1] was “−” and the Potency [2] was “−”.
For `CC1C(=O)N(CCN)CC2N(C(=O)c3ccc(OC(F)F)cc3)CCC(=O)N12` (stereo not shown) [Compound 35, 8-(2-aminoethyl)-1-(4-(difluoromethoxy)benzoyl)-6-methylhexahydro-4H-pyrazino[1,2-a]pyrimidine-4,7(6H)-dione], the Potency [1] was “−” and the Potency [2] was “−”.
In the case of `CC1C(=O)N(CCS(C)(=O)=O)CC2N(C(=O)c3ccc(OC(F)F)cc3)CCC(=O)N12` (stereo not shown) [Compound 36], the Potency [1] is reported as “−” and the Potency [2] is reported as “−”.
`CC1C(=O)N(CCC2CCCC2)CC2N(Cc3ccc(OC(F)F)cc3)CCC(=O)N12` (stereo not shown) [Compound 38] was tested, and the Potency [2] was “−”.
For `C=CCCN1CC2N(Cc3ccc(OC(F)F)cc3)CCC(=O)N2C(C)C1=O` (stereo not shown) [Compound 39], the Potency [1] was “−” and the Potency [2] was “−”.
In the case of `CC1C(=O)N(CCC2CCC2)CC2N(Cc3ccc(OC(F)F)cc3)CCC(=O)N12` (stereo not shown) [Compound 40], the Potency [2] is reported as “−”.
For `CCCCN1CC2N(Cc3ccc(OC(F)F)cc3)CCC(=O)N2C(C)C1=O` (stereo not shown) [Compound 41], the Potency [1] was “−” and the Potency [2] was “−”.
`CCC(C)CN1CC2N(Cc3ccc(C(F)(F)F)c(Cl)c3)CCC(=O)N2C(C)C1=O` (stereo not shown) [Compound 43] was tested, and the Potency [1] was “−” and the Potency [2] was “−”.
With `CCC(C)CN1CC2N(Cc3c[nH]c4ccccc34)CCC(=O)N2C(C)C1=O` (stereo not shown) [Compound 44] the Potency [1] was “−” and the Potency [2] was “−”.
With `CC1C(=O)N(CCC2CCC2)CC2N(Cc3ccc(F)cc3)CCC(=O)N12` (stereo not shown) [Compound 45, 8-(2-cyclobutylethyl)-1-(4-fluorobenzyl)-6-methylhexahydro-4H-pyrazino[1,2-a]pyrimidine-4,7(6H)-dione] the Potency [2] was “−”.
In the case of `CC1C(=O)N(CCC2CCCC2)CC2N(Cc3ccc(F)cc3)CCC(=O)N12` (stereo not shown) [Compound 46, 8-(2-cyclopentylethyl)-1-(4-fluorobenzyl)-6-methylhexahydro-4H-pyrazino[1,2-a]pyrimidine-4,7(6H)-dione], the Potency [1] is reported as “−” and the Potency [2] is reported as “−”.
`CCC(C)CN1CC2N(Cc3ccc(OC(F)F)cc3)CCC(=O)N2C(CF)C1=O` (stereo not shown) [Compound 47, 1-(4-(difluoromethoxy)benzyl)-6-(fluoromethyl)-8-(2-methylbutyl)hexahydro-4H-pyrazino[1,2-a]pyrimidine-4,7(6H)-dione] was tested, and the Potency [2] was “−”.
`CCC(C)CN1CC2N(Cc3ccc(C(F)(F)F)cc3)CCC(=O)N2C(CF)C1=O` (stereo not shown) [Compound 48, 6-(fluoromethyl)-8-(2-methylbutyl)-1-(4-(trifluoromethyl)benzyl)hexahydro-4H-pyrazino[1,2-a]pyrimidine-4,7(6H)-dione] was tested, and the Potency [2] was “−”.
For `CCC(C)CN1CC2N(Cc3ccc(OC(F)F)cc3)CCC(=O)N2C(CC(N)=O)C1=O` (stereo not shown) [Compound 50, 2-(1-(4-(difluoromethoxy)benzyl)-8-(2-methylbutyl)-4,7-dioxooctahydro-2H-pyrazino[1,2-a]pyrimidin-6-yl)acetamide], the Potency [1] was “−” and the Potency [2] was “−”.
With `OO` [Compound H2O2, Hydrogen peroxide, reference compound] the “Insult effect (% viability vs vehicle)” value ([3]; 1 uM) was 64.23%.
With `N[C@@H](CCC(=O)O)C(=O)O` [Glutamate, glutamate, reference compound] the “Insult effect (% viability vs vehicle)” value ([3]; 25 uM) was 49.55%.
